Assay results: US20080199449A1, “Methods and Compositions for Use in Treating Vascular Diseases and Conditions” (The General Hospital Corporation, priority 2005, published 2008)
“Also recorded” adds a separate entry of the source.

Key:
[1] = tested on: dorsal aorta and cardinal veins; assay: Artery-vein morphology in embryos expressing GFP in endothelial cells (fli-1 promoter); assay type: in vivo, zebrafish; conditions: for Vascular defects at higher doses: doses higher than the 1- to 5 μM suppressing range
[2] = tested on: gridlock phenotype (atresia of the proximal aorta in grl^m145 mutants); conditions: whole zebrafish embryos; Peterson et al., Nature Biotechnology 22:595-599, 2004; cited from earlier work
[3] = tested on: gridlock phenotype (atresia of the proximal aorta in grl^m145 mutants); assay: Suppression of the gridlock phenotype (restoration of trunk and tail circulation) in grl^m145 mutant embryos; assay type: in vivo, zebrafish
Description: Screening for suppressors of the gridlock phenotype. The screen was performed as previous described with modifications (Peterson et al., Nature Biotechnology 22:595-599, 2004). Briefly, pairs of homozygous grl^m145 zebrafish were mated, and fertilized eggs were arrayed in 96-well plates containing E3 embryo buffer. At the 6-somite stage, small molecules from the DiverSet E library (Chembridge) were added to each well, yielding a final concentration of 2.5 μM. Embryos were incubated at 28.5° C. for 48 hrs. Circulation to the tail was assessed visually using a dissecting microscope.
Fluorescent microangiography. Fluorescence microangiography was performed as previously described (Weinstein et al., Nature Medicine 1:1143-1147, 1995).

zebrafish embryos = assay: Gross embryonic morphology and lethality after compound exposure; assay type: in vivo

N#CC(=C(/N)Sc1ccccc1N)/C(C#N)=C(\N)Sc1ccccc1N [U0126]
Effect on aorta (artery formation) ([1]; 48-hpf fli-1 GFP embryos, GS4898 15 μM, U0126 100 μM, SL327 (FIG. 3E-G)): either loss or reduction of aorta; also recorded: the aorta is greatly reduced
Effect on vein (posterior/common cardinal vein, vein formation) ([1]; 48-hpf fli-1 GFP embryos, GS4898 15 μM, U0126 100 μM, SL327 (FIG. 3F, G)): expansion of the common cardinal vein; also recorded: enlarged

COC[C@H]1OC(=O)c2coc3c2[C@@]1(C)C1=C(C3=O)[C@@H]2CCC(=O)[C@@]2(C)C[C@H]1OC(C)=O [wortmannin]
Vascular defects at higher doses [1]: severe vascular defects

COc1ccc(SCCc2ccncc2)cc1.Cl [GS4012]
Suppression of the vascular defect in gridlock mutant embryos (earlier screen) [2]: suppresses the vascular defect in gridlock mutant embryos
Suppression of the gridlock phenotype, single treatment at sub-effective dose ([3]; GS4898 0.75 μM, LY294002 3 μM, wortmannin 0.075 μM, GS4012 0.7 μg/mL (FIG. 1F)): does not suppress
Suppression of the gridlock phenotype (tail circulation) ([3]; homozygous grl^m145 mutant zebrafish embryos): suppressed

O=c1cc(N2CCOCC2)oc2c(-c3ccccc3)cccc12 [LY294002]
Vascular defects at higher doses [1]: severe vascular defects

N#C/C(=C(/N)Sc1ccc(N)cc1)c1ccccc1C(F)(F)F [SL327]
Gross embryonic morphology, treatment starting at 12-hpf (zebrafish embryos; 36-hpf embryos, GS4898 10 μM, SL327 60 μM (FIG. 5)): moderately deformed tail curvature, but otherwise grossly intact head organogenesis, somitogenesis, and yolk extension
Embryonic lethality and gross defects, treatment at stages earlier than 12-hpf (zebrafish embryos; treatment of embryos at earlier stages (FIG. 5)): high degree of embryonic lethality and variable gross morphologic defects
